In PubChem BioAssay AID2060336 (Molecular Pharmacology Branch, DTP, NCI, 2025):

System: 958767-090-R-J1-PDC spheroid growth
Experiment: Anticancer human tumor 958767-090-R-J1-PDC patient-derived head and neck squamous carcinoma cell line growth inhibition [IpAb]
Conditions: spheroids with HUVEC and MSC; for IC50: curve of first compound; for viability, T/C: stronger effect = lower value
Excerpt: Combinatorial screen of targeted agents with ipatasertib and abemaciclib in multi-cell type tumor spheroids
A high-throughput screen of multi-cell type tumor spheroids was designed to identify active combinations of targeted small molecules and ipatasertib or abemaciclib. Complex spheroids include a stromal component modeled by human endothelial cells (HUVEC) and fibroblasts modeled by human mesenchymal stem cells (MSCs). The concentration ranges selected for each drug and investigational agent were based upon clinically achievable concentrations if the clinical Cmax of the agent was known.
Compounds. The drugs and investigational agents: ipatasertib (NSC767898), abemaciclib(NSC768073), selumetinib (NSC741078), trametinib (758246), adavosertib (NSC754352), everolimus (NSC733504), sapanisertib (NSC764658), vemurafenib (NSC761431), venetoclax (NSC766270), copanlisib (NSC809693), apelisib (NSC765974), palbociblib (NSC758247), vemurafenib (NSC761431), dabrafenib (NSC764134), ravoxertinib (NSC781343), BMS-387032 (NSC767048), sotorasib (NSC818433), talazoparib (NSC767125) and afursertib (NSC778305), were obtained from the National Cancer Institute (NCI) Developmental Therapeutics Program Chemical Repository. The FDA-approved anticancer drug set is available from the NCI Developmental Therapeutics Program. […] The stock solutions were prepared in dimethyl sulfoxide (DMSO, Sigma-Aldrich, St. Louis, MO, cat. D2650) at 800-fold the tested concentration and stored at -70 degrees C prior to their use. All drugs and investigational agents were tested over a range starting from a high concentration at or near the clinical Cmax and decreasing in half-log increments. If the clinical Cmax for an agent had not been determined, the highest concentration tested was 10 microM.
NCI60 Cell Culture. NCI60 cell lines were obtained from the NCI Developmental Therapeutics Program Tumor Repository. For each lot of cells, the Repository performed Applied Biosystems AmpFLSTR Identifiler testing with PCR amplification to confirm consistency with the published Identifier STR profile for each cell line. Cells were kept in continuous culture for no more than 20 passages. The optimal seeding densities for each of the cell lines at each time point assessed were determined prior to performing the concentration response studies. Briefly, the NCI60 human tumor lines were grown as monolayers in RPMI 1640 medium supplemented with 10% FBS and 2 mmol/L L-glutamine.
An additional 9 lines were from the NCI60 cell line panel including MDA-MB-231 breast carcinoma, MDA-MB-468 breast carcinoma, MCF7 breast carcinoma, Hs578T breast carcinoma, MALME-3M melanoma, SK-MEL-2 melanoma, SK-OV-3 ovarian carcinoma, DU-145 prostate carcinoma, PC-3 prostate carcinoma, all cell lines along with major genetic alterations are listed on Table 2. Pooled donor human umbilical vein endothelial cells (HUVEC, Lonza, cat. CC-2519) and human mesenchymal stem cells (hMSC, Lonza, cat. PT-2501) were purchased from Lonza (Walkersville, MD).
PDMR cell lines were grown in complete medium (DC medium): Dulbecco's modified Eagle's medium (DMEM)/F12 supplemented with 5% fetal bovine serum (FBS), 2 mM L-glutamine, 100 U/mL penicillin and 100 µg/ml streptomycin, 0.4 µg/ml hydrocortisone, 10 ng/ml epidermal growth factor (EGF) recombinant human protein, 24 µg/mL adenine, and 0.1 mg/mL primocin. During culture from frozen stock vials, PDMR cells were cultured in the same medium containing 10 µM Y-27632 (see Table 3). The PDCs were cultured in complete DMEM/F12 media without 10 microM Y-27632 dihydrochloride for at least two passages prior to the screen. The pooled donor HUVEC and hMSC were cultured in endothelial cell growth medium 2 (PromoCell, Heidelberg, Germany, cat. C-22011) and mesenchymal stem cell growth medium 2 (PromoCell, cat. C-28009), respectively. For all experiments, HUVEC and hMSC were used at passages </=5.
[…]
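Also: spheroids exposed to agents for 7 days.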
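For viability, T/C in this document: 100% = DMSO vehicle control wells.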

## CC(C)n1nc(-c2ccc3oc(N)nc3c2)c2c(N)ncnc21 + CC(C)NCC(C(=O)N1CCN(c2ncnc3c2C(C)CC3O)CC1)c1ccc(Cl)cc1
Second compound 0.1 µM
  IC50: 9.11 nM
Second compound 0.316 µM
  IC50: 1.82 nM
Second compound 1 µM
  IC50: 1.13 nM
Second compound 3.16 µM
  IC50: 0.83 nM
Second compound 10 µM
  IC50: < 0.316 nM
Second compound 0.1 µM, first compound 0.000316 µM
  viability, T/C: 78.4%
Second compound 0.1 µM, first compound 0.001 µM
  viability, T/C: 72.8%
Second compound 0.1 µM, first compound 0.00316 µM
  viability, T/C: 53.6%
Second compound 0.1 µM, first compound 0.01 µM
  viability, T/C: 57.9%
Second compound 0.1 µM, first compound 0.0316 µM
  viability, T/C: 32.8%
Second compound 0.1 µM, first compound 0.1 µM
  viability, T/C: 32.6%
Second compound 0.316 µM, first compound 0.000316 µM
  viability, T/C: 72.4%
Second compound 0.316 µM, first compound 0.001 µM
  viability, T/C: 58.5%
Second compound 0.316 µM, first compound 0.00316 µM
  viability, T/C: 43.5%
Second compound 0.316 µM, first compound 0.01 µM
  viability, T/C: 29.8%
Second compound 0.316 µM, first compound 0.0316 µM
  viability, T/C: 37.4%
Second compound 0.316 µM, first compound 0.1 µM
  viability, T/C: 33.4%
Second compound 1 µM, first compound 0.000316 µM
  viability, T/C: 59.1%
Second compound 1 µM, first compound 0.001 µM
  viability, T/C: 51.9%
Second compound 1 µM, first compound 0.00316 µM
  viability, T/C: 40.7%
Second compound 1 µM, first compound 0.01 µM
  viability, T/C: 34%
Second compound 1 µM, first compound 0.0316 µM
  viability, T/C: 29.1%
Second compound 1 µM, first compound 0.1 µM
  viability, T/C: 25%
Second compound 3.16 µM, first compound 0.000316 µM
  viability, T/C: 61.4%
Second compound 3.16 µM, first compound 0.001 µM
  viability, T/C: 47.2%
Second compound 3.16 µM, first compound 0.00316 µM
  viability, T/C: 37.2%
Second compound 3.16 µM, first compound 0.01 µM
  viability, T/C: 26%
Second compound 3.16 µM, first compound 0.0316 µM
  viability, T/C: 21.1%
Second compound 3.16 µM, first compound 0.1 µM
  viability, T/C: 17.2%
Second compound 10 µM, first compound 0.000316 µM
  viability, T/C: 47.4%
Second compound 10 µM, first compound 0.001 µM
  viability, T/C: 42.5%
Second compound 10 µM, first compound 0.00316 µM
  viability, T/C: 34.6%
Second compound 10 µM, first compound 0.01 µM
  viability, T/C: 17%
Second compound 10 µM, first compound 0.0316 µM
  viability, T/C: 13.6%
Second compound 10 µM, first compound 0.1 µM
  viability, T/C: 13%
